Test results taken from ChEMBL document CHEMBL5678818, “Discovery of potent SOS1 inhibitors that block RAS activation via disruption of the RAS-SOS1 interaction” (Proc Natl Acad Sci U S A, 2019).

Experiments:
[1] = target: T1, Serine/threonine-protein kinase BRSK1 (Homo sapiens) (UniProt Q8TDC3); assay: Inhibition of BRSK1 (unknown origin) assessed as residual activity at 1000 nM by KINOMEscan analysis relative to control
T1 sequence (whole entry): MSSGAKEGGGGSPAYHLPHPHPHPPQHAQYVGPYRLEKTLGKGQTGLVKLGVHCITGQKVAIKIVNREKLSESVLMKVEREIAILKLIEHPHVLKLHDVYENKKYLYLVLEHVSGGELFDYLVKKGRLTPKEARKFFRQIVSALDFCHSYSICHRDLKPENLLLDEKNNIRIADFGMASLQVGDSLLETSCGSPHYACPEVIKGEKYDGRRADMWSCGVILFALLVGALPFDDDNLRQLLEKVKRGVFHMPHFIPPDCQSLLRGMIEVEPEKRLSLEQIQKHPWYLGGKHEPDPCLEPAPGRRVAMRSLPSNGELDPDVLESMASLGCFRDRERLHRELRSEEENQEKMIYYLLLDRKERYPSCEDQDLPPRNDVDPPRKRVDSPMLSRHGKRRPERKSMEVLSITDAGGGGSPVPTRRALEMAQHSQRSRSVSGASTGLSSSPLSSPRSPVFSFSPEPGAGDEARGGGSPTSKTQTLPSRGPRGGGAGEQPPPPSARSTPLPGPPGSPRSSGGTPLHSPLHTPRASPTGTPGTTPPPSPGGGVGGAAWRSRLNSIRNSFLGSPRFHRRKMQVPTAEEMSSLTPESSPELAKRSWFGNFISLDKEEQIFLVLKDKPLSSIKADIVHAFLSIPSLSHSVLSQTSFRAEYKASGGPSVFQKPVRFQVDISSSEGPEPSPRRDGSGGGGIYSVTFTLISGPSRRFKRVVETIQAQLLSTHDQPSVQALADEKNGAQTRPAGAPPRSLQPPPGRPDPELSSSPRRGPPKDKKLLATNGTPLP

[2] = target: Serine/threonine-protein kinase 38-like (Homo sapiens) (UniProt Q9Y2H1); assay: Inhibition of NDR2 (unknown origin) assessed as residual activity at 1000 nM by KINOMEscan analysis relative to control
[3] = target: Activin receptor type-2B (Homo sapiens) (UniProt Q13705); assay: Inhibition of ACVR2B (unknown origin) assessed as residual activity at 1000 nM by KINOMEscan analysis relative to control
[4] = target: Receptor-type tyrosine-protein kinase FLT3 (Homo sapiens) (UniProt P36888); assay: Inhibition of FLT3 (unknown origin) assessed as residual activity at 1000 nM by KINOMEscan analysis relative to control
[5] = target: Eukaryotic translation initiation factor 2-alpha kinase 1 (Homo sapiens) (UniProt Q9BQI3); assay: Inhibition of EIF2AK1 (unknown origin) assessed as residual activity at 1000 nM by KINOMEscan analysis relative to control
[6] = tested on: Epidermal growth factor receptor (Homo sapiens), P00533 [UNDEFINED MUTATION]; assay: Inhibition of EGFR L747-S752del/P753S mutant (unknown origin) assessed as residual activity at 1000 nM by KINOMEscan analysis relative to control
[7] = target: T2, Serine/threonine-protein kinase Nek1 (Homo sapiens) (UniProt Q96PY6); assay: Inhibition of NEK1 (unknown origin) assessed as residual activity at 1000 nM by KINOMEscan analysis relative to control
T2 sequence (whole entry): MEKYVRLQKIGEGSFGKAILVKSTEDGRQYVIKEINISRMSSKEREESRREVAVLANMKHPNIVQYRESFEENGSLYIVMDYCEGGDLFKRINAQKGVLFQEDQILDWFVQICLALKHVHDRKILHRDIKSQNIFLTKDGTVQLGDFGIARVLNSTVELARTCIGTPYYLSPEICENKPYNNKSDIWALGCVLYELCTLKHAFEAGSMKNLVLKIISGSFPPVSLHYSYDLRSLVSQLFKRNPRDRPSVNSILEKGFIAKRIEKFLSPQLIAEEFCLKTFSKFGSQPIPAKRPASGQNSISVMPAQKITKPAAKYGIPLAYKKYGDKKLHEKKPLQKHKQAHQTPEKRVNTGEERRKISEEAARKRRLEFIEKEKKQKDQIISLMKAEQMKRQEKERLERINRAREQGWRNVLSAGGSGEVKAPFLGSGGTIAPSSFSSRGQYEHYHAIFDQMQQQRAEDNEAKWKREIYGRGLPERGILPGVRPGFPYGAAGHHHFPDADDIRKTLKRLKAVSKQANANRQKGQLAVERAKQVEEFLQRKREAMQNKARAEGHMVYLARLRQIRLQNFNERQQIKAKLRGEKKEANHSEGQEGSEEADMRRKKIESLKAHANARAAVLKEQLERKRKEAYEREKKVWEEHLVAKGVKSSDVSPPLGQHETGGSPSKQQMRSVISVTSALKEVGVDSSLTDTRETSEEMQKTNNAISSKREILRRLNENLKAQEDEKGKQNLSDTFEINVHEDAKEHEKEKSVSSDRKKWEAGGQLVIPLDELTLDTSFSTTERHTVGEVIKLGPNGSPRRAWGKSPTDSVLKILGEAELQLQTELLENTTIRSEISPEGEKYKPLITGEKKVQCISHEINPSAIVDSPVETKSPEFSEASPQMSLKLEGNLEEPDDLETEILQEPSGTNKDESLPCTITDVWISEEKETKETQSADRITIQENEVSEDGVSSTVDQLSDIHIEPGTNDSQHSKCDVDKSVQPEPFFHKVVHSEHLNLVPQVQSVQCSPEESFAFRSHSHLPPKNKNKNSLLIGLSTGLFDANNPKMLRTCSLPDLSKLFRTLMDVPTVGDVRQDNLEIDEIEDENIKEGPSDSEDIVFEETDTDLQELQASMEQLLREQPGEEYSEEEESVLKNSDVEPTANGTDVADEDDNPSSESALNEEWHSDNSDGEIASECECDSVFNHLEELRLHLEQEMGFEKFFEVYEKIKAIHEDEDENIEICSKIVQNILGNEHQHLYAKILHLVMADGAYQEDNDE

[8] = tested on: Tyrosine-protein kinase ABL1 (Homo sapiens), P00519 [H396P]; assay: Inhibition of nonphosphorylated ABL1 H396P mutant (unknown origin) assessed as residual activity at 1000 nM by KINOMEscan analysis relative to control

Epidermal growth factor receptor (Homo sapiens), P00533 [UNDEFINED MUTATION], sequence (P00533 whole entry, looked up, stated change not applied): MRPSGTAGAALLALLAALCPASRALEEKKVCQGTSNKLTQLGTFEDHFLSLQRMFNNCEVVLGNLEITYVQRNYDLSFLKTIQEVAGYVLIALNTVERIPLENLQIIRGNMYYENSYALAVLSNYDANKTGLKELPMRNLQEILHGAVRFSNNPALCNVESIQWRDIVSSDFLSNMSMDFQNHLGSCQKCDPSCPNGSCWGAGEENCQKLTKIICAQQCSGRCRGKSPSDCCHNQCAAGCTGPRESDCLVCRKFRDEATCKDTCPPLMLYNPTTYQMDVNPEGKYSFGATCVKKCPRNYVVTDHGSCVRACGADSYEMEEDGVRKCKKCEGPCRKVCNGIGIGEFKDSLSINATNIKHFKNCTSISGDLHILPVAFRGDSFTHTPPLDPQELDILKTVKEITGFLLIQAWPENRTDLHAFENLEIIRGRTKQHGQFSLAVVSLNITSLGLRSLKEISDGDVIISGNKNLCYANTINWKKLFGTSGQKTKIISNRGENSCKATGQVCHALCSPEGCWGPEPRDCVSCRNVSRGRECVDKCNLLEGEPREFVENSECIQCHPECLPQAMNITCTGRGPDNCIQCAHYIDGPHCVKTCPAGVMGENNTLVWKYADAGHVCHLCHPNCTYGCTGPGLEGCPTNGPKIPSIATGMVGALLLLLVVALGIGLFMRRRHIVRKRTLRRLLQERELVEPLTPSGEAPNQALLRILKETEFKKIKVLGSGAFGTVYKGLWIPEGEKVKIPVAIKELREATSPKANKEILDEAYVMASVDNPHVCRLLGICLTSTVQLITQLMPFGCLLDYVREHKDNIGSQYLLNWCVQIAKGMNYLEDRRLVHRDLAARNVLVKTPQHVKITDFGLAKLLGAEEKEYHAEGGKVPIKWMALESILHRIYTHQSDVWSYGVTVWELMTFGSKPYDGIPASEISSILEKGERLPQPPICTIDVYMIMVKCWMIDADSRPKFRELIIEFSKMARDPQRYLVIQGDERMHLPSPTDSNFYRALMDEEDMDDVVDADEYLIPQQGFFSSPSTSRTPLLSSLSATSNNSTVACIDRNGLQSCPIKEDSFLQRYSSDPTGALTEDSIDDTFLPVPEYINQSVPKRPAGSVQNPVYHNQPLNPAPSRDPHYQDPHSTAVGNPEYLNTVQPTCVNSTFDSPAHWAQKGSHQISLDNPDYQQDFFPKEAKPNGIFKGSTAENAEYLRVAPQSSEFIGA
Serine/threonine-protein kinase 38-like (Homo sapiens), sequence (Q9Y2H1 2-464 limits assumed): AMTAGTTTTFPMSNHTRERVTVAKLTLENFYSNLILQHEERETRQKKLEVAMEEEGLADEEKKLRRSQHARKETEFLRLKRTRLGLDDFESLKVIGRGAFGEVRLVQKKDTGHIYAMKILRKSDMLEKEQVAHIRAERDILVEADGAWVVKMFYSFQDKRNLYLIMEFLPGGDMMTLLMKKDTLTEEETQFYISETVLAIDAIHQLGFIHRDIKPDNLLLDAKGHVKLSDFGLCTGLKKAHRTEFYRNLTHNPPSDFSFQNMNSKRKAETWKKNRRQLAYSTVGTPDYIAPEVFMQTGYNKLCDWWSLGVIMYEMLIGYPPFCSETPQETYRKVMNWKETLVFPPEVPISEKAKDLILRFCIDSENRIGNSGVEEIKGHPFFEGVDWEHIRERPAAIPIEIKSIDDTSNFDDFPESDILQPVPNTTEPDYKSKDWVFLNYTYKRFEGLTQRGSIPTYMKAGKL
Eukaryotic translation initiation factor 2-alpha kinase 1 (Homo sapiens), sequence (Q9BQI3 whole entry): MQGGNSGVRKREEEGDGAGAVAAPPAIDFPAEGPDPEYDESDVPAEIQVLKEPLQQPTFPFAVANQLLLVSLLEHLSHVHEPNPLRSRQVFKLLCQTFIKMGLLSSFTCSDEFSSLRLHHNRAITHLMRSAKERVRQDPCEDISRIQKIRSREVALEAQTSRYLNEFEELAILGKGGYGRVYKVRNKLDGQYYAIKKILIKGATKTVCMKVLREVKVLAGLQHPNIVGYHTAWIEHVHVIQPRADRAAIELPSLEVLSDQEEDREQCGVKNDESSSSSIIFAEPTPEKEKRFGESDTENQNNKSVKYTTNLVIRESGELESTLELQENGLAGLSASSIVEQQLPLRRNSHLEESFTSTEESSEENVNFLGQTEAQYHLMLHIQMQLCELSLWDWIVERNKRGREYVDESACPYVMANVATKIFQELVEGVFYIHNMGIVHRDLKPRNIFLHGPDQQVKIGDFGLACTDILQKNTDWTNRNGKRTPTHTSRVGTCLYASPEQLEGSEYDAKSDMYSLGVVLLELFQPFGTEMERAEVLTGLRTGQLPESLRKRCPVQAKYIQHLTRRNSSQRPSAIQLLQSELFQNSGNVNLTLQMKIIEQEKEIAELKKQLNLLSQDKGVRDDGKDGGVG
Activin receptor type-2B (Homo sapiens), sequence (Q13705 whole entry): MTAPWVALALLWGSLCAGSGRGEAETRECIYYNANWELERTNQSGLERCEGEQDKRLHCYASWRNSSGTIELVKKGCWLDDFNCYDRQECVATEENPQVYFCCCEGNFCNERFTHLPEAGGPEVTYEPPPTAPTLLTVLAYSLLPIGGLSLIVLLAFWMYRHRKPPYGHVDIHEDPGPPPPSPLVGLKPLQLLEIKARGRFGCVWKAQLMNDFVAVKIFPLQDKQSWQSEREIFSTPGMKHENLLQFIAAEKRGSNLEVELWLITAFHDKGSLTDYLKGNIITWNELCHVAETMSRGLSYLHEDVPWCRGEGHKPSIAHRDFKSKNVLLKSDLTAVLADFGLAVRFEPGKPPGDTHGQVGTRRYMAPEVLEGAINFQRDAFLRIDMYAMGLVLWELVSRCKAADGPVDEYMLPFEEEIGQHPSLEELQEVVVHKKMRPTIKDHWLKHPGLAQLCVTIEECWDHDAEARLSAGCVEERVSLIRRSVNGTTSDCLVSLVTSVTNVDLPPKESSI
Receptor-type tyrosine-protein kinase FLT3 (Homo sapiens), sequence (P36888 whole entry): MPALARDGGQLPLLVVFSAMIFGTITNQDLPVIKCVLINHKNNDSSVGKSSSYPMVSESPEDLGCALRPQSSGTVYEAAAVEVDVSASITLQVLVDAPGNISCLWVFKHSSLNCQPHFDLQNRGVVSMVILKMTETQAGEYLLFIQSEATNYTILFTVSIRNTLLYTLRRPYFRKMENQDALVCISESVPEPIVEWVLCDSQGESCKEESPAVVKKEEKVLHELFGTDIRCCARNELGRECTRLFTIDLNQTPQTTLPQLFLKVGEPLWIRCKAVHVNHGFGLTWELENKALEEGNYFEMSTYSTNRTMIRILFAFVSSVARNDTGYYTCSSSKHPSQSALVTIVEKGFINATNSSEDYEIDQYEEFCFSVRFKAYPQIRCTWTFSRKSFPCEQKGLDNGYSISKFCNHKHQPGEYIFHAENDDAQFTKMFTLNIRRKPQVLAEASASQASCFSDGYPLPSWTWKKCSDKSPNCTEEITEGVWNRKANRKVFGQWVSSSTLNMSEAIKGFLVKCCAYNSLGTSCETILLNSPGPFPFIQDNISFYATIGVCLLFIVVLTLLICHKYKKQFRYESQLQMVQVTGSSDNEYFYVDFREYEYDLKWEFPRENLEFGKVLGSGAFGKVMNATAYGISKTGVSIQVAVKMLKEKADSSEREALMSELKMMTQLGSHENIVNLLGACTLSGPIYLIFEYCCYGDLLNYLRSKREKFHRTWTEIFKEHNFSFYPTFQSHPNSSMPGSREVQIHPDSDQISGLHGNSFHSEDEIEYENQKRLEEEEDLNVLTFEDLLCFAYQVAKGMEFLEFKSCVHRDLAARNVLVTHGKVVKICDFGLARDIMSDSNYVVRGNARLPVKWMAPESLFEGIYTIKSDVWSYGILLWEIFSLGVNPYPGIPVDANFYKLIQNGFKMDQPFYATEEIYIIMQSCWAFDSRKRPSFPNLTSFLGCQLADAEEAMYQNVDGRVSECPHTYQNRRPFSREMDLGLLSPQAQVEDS

| Compound | Activity [1] [%] | Activity [2] [%] | Activity [3] [%] | Activity [4] [%] | Activity [5] [%] | Activity [6] [%] | Activity [7] [%] | Activity [8] [%] |
| --- | --- | --- | --- | --- | --- | --- | --- | --- |
| COc1cc2nc(C)nc(N[C@H](C)c3cccc(-c4cn[nH]c4)c3)c2cc1OC | 100 | 87 | 91 | 78 | 100 | 93 | 100 | 71 |
| COc1cc2ncnc(N[C@H](C)c3cccc4ccccc34)c2cc1OC | 100 | 86 | 100 | 93 | 88 | 9.3 | 96 | 100 |
